# Measurements taken from ChEMBL document CHEMBL1129670, “Synthesis and structure-activity relationships of N-propyl-N-(4-pyridinyl)-1H-indol-1-amine (besipirdine) and related analogs as potential therapeutic agents for Alzheimer's disease” (J Med Chem, 1996).
# Legend:
# [1] = molecular target: T1, Adrenergic receptor alpha-2 (Rattus norvegicus, UniProt P22086+P19328+P22909); assay: Inhibitory activity against [3H]clonidine binding to Alpha-2 adrenergic receptor in rat cortex
# T1 sequence (P22086 whole entry): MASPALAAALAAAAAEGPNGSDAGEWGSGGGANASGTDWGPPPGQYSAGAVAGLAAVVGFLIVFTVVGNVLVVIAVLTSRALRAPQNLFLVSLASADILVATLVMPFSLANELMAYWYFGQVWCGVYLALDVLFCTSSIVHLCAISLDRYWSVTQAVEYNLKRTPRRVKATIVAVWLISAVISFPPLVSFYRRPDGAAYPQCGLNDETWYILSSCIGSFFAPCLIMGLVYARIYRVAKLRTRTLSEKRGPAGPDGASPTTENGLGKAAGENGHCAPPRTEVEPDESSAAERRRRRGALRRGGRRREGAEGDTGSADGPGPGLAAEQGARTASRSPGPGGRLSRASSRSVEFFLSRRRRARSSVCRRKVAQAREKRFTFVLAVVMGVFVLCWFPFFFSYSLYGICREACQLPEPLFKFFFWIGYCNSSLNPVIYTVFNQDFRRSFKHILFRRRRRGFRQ
# T1 sequence (P19328 whole entry): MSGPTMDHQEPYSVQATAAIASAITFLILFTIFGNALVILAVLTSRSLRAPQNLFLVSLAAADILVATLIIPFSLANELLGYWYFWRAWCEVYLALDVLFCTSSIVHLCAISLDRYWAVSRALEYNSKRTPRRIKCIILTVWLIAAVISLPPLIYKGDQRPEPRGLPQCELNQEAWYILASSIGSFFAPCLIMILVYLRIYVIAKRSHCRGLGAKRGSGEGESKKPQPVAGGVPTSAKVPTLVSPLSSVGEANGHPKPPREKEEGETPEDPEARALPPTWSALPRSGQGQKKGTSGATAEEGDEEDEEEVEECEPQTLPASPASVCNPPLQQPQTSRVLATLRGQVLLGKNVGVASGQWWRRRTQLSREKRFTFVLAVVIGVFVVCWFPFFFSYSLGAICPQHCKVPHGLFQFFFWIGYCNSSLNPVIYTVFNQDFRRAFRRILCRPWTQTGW
# T1 sequence (P22909 whole entry): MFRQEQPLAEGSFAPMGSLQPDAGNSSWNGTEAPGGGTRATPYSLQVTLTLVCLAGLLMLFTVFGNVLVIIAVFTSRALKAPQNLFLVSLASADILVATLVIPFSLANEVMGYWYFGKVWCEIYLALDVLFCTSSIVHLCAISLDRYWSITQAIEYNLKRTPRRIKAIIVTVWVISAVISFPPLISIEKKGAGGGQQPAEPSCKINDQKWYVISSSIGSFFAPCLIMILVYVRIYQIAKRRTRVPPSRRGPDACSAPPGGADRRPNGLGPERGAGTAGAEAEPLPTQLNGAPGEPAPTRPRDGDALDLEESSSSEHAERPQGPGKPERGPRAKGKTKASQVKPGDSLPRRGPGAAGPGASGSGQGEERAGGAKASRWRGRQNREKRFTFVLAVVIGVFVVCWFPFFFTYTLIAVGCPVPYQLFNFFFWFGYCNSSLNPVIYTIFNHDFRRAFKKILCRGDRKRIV
# Mus musculus [2] = species: Mus musculus; assay: Antagonistic activity against Scopolamine induced behavioral deficits in mice; 3/9; format: functional
# Mus musculus [3] = assay: Antagonistic activity against Scopolamine induced behavioral deficits in mice at dose 0.04 mg/kg sc; format: functional; details: route subcutaneous
# Mus musculus [4] = assay: Antagonistic activity against Scopolamine induced behavioral deficits in mice at dose 0.16 mg/kg sc; format: functional; details: route subcutaneous
# [5] = molecular target: Neuronal acetylcholine receptor; assay: Inhibitory activity against [3H]-NMCC binding to nicotinic receptors in rat cortex
# Glutamate NMDA receptor [6] = assay: Inhibitory activity against [3H]TCP binding to Phencyclidine receptor in rat cortex
# [7] = molecular target: T2, Muscarinic acetylcholine receptor M2 (Rattus norvegicus, UniProt P10980); assay: Inhibitory activity against [3H]N-methyl-scopolamine in rat Muscarinic acetylcholine receptor M2 cerebellum in the presence GPP(NH)P; format: tissue-based
# T2 sequence (P10980 whole entry): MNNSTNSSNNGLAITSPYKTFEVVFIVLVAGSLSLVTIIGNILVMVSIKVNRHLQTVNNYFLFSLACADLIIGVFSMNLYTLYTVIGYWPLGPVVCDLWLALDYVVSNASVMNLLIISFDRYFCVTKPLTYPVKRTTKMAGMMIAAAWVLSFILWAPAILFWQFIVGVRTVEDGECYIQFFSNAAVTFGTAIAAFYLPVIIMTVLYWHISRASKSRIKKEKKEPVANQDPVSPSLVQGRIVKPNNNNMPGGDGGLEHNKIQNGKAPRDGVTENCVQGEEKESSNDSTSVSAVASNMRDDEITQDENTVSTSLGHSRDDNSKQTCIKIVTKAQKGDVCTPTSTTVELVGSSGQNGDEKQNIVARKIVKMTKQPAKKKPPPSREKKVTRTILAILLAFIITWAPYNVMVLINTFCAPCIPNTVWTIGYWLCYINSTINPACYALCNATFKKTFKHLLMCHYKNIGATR
# [8] = molecular target: Muscarinic acetylcholine receptor; assay: Inhibitory activity against [3H]oxotremorine-M binding to muscarinic receptors in rat forebrain membrane; format: cell membranes
# [9] = molecular target: 5-hydroxytryptamine receptor 1B (Rattus norvegicus, UniProt P28564); assay: Inhibitory activity against [3H]5-HT binding to 5-HT1B receptor in rat striatum; format: tissue-based
# D(2) dopamine receptor = D(2) dopamine receptor (Rattus norvegicus, UniProt P61169); assay: Inhibitory activity against [3H]spiroperidol bingind to Dopamine receptor D2 in rat striatum; format: tissue-based
# [10] = molecular target: T3, 5-hydroxytryptamine receptor 1A (Rattus norvegicus, UniProt P19327); assay: Inhibitory activity against [3H]DPAT binding to 5-HT1A receptor in rat hippocampus; format: tissue-based
# T3 sequence (P19327 whole entry): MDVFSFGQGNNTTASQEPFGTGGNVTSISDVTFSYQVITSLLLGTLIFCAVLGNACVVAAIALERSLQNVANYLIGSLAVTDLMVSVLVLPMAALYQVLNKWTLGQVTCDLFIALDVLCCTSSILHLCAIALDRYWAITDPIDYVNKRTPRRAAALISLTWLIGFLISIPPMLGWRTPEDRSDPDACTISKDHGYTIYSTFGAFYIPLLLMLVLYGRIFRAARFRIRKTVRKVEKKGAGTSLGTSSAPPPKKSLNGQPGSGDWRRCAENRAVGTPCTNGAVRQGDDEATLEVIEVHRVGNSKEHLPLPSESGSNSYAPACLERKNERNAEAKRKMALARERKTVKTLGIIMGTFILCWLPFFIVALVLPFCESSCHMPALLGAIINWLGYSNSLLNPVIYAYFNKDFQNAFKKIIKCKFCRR
# Glutamate NMDA receptor [11] = assay: Inhibitory activity against [3H]-CPP binding to NMDA receptor in rat cortex
# Mu-type opioid receptor = Mu-type opioid receptor (Rattus norvegicus, UniProt P33535); assay: Inhibitory activity against [3H]DHM binding to mu opioid receptor in rat whole brain
# D(1A) dopamine receptor = D(1A) dopamine receptor (Rattus norvegicus, UniProt P18901); assay: Inhibitory activity against [3H]SCH-23390 binding to Dopamine receptor D1 in rat striatum; format: tissue-based
# Rattus norvegicus = species: Rattus norvegicus; assay: Inhibitory activity against [3H]norepinephrine (NE) uptake in rat hypothalamus; format: functional
# Mus musculus [12] = species: Mus musculus; assay: Antagonistic activity against Scopolamine induced behavioral deficits in mice; 5/6; format: functional
# D(2) dopamine receptor, sequence (P61169 whole entry): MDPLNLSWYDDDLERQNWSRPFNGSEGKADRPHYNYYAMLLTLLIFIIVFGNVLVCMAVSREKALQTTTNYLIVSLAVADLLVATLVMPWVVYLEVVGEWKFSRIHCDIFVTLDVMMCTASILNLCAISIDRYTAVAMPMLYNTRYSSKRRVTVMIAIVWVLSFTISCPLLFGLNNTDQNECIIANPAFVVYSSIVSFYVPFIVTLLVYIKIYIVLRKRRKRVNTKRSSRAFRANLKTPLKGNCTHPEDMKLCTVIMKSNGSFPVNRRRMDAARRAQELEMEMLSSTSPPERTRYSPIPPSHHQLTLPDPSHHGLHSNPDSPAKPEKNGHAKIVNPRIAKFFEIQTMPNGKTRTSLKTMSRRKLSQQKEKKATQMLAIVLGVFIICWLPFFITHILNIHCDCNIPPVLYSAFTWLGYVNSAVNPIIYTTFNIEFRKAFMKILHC
# D(1A) dopamine receptor, sequence (P18901 whole entry): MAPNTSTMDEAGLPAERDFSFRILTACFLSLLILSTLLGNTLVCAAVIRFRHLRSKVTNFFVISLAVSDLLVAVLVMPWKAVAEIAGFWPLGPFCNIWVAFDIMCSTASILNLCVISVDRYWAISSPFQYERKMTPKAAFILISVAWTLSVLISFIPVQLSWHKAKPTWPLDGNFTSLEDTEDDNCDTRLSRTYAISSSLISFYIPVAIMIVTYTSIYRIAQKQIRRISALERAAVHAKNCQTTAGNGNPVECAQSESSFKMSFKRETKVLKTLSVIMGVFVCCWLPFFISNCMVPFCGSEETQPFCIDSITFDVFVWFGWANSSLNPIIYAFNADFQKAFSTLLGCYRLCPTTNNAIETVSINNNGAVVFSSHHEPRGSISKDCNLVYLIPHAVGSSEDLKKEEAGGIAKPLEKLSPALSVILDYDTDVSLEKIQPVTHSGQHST
# Mu-type opioid receptor, sequence (P33535 whole entry): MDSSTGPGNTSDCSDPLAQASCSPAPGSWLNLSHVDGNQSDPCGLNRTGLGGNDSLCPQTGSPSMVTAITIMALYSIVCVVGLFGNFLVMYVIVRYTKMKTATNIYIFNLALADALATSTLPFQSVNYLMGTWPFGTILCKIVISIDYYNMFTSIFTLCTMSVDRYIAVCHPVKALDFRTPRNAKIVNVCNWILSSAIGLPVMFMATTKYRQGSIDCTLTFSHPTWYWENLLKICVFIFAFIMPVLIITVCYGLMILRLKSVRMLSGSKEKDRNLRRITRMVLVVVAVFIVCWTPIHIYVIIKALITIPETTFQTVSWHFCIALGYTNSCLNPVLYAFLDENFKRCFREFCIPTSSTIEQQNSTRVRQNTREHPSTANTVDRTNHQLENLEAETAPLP
# 5-hydroxytryptamine receptor 1B, sequence (P28564 whole entry): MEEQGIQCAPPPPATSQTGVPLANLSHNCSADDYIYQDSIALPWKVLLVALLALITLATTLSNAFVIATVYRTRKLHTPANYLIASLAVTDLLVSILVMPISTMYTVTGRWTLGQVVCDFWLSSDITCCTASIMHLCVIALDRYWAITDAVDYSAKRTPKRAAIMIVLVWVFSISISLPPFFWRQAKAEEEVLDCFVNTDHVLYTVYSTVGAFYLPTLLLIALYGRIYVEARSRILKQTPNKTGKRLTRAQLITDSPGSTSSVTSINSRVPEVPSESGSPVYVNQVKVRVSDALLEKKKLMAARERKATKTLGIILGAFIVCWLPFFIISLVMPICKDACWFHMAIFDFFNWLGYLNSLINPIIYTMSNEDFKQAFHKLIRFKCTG
SMILES,IC50 [1] [µM],Antagonism (Mus musculus [2]),Response (Mus musculus [3]) [%],Response (Mus musculus [4]) [%],IC50 [5] [µM],IC50 (Glutamate NMDA receptor [6]) [µM],IC50 [7] [µM],IC50 [8] [µM],IC50 [9] [µM],IC50 (D(2) dopamine receptor) [µM],IC50 [10] [µM],IC50 (Glutamate NMDA receptor [11]) [µM],IC50 (Mu-type opioid receptor) [µM],IC50 (D(1A) dopamine receptor) [µM],IC50 (Rattus norvegicus) [µM],Antagonism (Mus musculus [12])
CN(c1ccncc1)n1ccc2ccccc21,0.024,3,53,,,,,,,,,,,,,
c1ccc2c(c1)ccn2Nc1ccncc1,0.008,3,,23,,,,,,,,,,,,
CCCN(c1ccncc1)n1ccc2ccccc21 [BESIPIRDINE],0.33,,30,27,> 20,> 20,0.65,0.46,> 20,> 20,< 20,> 20,> 1,> 20,0.27,5
